Experimental data taken from the PolyMetriX glass transition set.
± gives the standard deviation of the reports.

Row | glass transition temperature | SMILES
1 | 155.00 °C | *CCCCCCN1C(=O)c2ccc(C(c3ccc4c(c3)C(=O)N(*)C4=O)(C(F)(F)F)C(F)(F)F)cc2C1=O (repeat unit)
2 | 196.00 °C | *CC(*)(C)C(=O)OC1(C)CCCN(c2ccc(/N=N/c3ccc(/C=C(\C#N)S(C)(=O)=O)cc3)cc2)C1 (repeat unit)
3 | 184.00 °C | *OC(=O)Oc1ccc(S(=O)(=O)c2ccc(OC(=O)OC3CC4CC(*)CC(C3)O4)cc2)cc1 (repeat unit)
4 | 34.00 °C | */C=C/CC(C*)(C(=O)OC12CC3CC(CC(C3)C1)C2)C(=O)OC12CC3CC(CC(C3)C1)C2 (repeat unit)
5 | 130.00 °C | *CC(c1ccccc1)C1C(=O)N(CCCOc2ccc(-c3ccc(C#N)cc3)cc2)C(=O)C1* (repeat unit)
6 | 280.00 °C | *C(=O)Nc1c(C)cc(Cc2cc(C)c(NC(=O)c3ccc4c(c3)C(=O)N(c3ccc(/N=N/c5ccc([N+](=O)[O-])cc5)c(N5C(=O)c6ccc(*)cc6C5=O)c3)C4=O)c(C)c2)cc1C (repeat unit)
7 | 31.00 °C | *C(=O)OCCCSCCCCCCSCCCOC(=O)c1ccc(N2C(=O)c3ccc(*)cc3C2=O)cc1 (repeat unit)
8 | 210.00 °C | *Oc1cccc(NC(=O)c2cc(C(=O)Nc3ccc(*)cc3)cc(C(F)(F)C(F)(F)C(F)(F)C(F)(F)C(F)(F)C(F)(F)C(F)(F)C(F)(F)F)c2)c1 (repeat unit)
9 | 133.00 °C | *OS(=O)(=O)c1cccc(C(=O)Oc2ccc(C(C)(C)c3ccc(*)cc3)cc2)c1 (repeat unit)
10 | 360.00 °C | *c1ccc2oc3ccc(S(*)(=O)=O)cc3c2c1 (repeat unit)
11 | 300.00 °C | *c1ccc(-c2ccc3nc(Oc4cc(-c5ccccc5)c5cc(*)ccc5n4)cc(-c4ccccc4)c3c2)cc1 (repeat unit)
12 | 47.00 °C | */C=C/C1CC(*)C(C#N)([Si](C)(C)O[Si](C)(C)O[Si](C)(C)C)C1 (repeat unit)
13 | 264.00 °C | *c1c(C)cc(Cc2cc(C)c(N3C(=O)c4ccc(Oc5c(C)cc(Cc6cc(C)c(Oc7ccc8c(c7)C(=O)N(*)C8=O)c(C)c6)cc5C)cc4C3=O)c(C)c2)cc1C (repeat unit)
14 | 114.00 °C | *Cc1cc(COC(=O)Nc2ccc(Cc3ccc(NC(=O)O*)cc3)cc2)cc(C(C)(C)C)c1 (repeat unit)
15 | 110.00 °C | *CC(O)COC(=O)C1CCC(C(=O)OCC(O)COc2ccc(C3(c4ccc(O*)cc4)c4ccccc4-c4ccccc43)cc2)CC1 (repeat unit)
16 | 342.00 °C | *c1ccc(-c2cc(C(C)(C)C)c(Oc3ccc(N4C(=O)c5ccc(Oc6ccc7c(c6)C(=O)N(*)C7=O)cc5C4=O)cc3)c(C(C)(C)C)c2)cc1 (repeat unit)
17 | 93.00 °C | *Oc1c(C)cc(C(C)(C)c2cc(C)c(OC(=O)CCCCC(*)=O)c(C)c2)cc1C (repeat unit)

Row | glass transition temperature | SMILES
18 | 62.00 °C | *CC(*)(C)C(=O)OCCCCCCCCCCOc1ccc(/N=N/c2ccc(OC)cc2)cc1 (repeat unit)
19 | 248.00 °C | *c1ccc(Oc2ccc(C(=O)c3ccc4cc(C(=O)c5ccc(Oc6ccc(-c7nc(-c8ccccc8)[nH]c7*)cc6)cc5)ccc4c3)cc2)cc1 (repeat unit)
20 | -94.00 °C | *O[Si](C)(C)O[Si](C)(C)O[Si](C)(C)OC(C)CCCCC(*)C (repeat unit)
21 | 127.00 °C | *CCCCCCOc1ccc(-c2cc(-c3ccccc3)c(-c3ccc(NC(=O)c4ccc(C(=O)Nc5ccc(-c6c(-c7ccccc7)cc(-c7ccc(O*)cc7)cc6-c6ccccc6)cc5)cc4)cc3)c(-c3ccccc3)c2)cc1 (repeat unit)
22 | 169.00 °C | *c1ccc(Oc2ccc(C3(c4ccc(Oc5ccc(-c6ccc(*)s6)cc5C(F)(F)F)cc4)c4ccccc4-c4ccccc43)cc2)c(C(F)(F)F)c1 (repeat unit)
23 | 122.00 °C | *CCCCOC(=O)Nc1ccc(Cc2ccc(NC(=O)OCCCCn3c4ccccc4c4cc(/C=C(\C#N)C(=O)OCCCCCCOC(=O)/C(C#N)=C/c5ccc6c(c5)c5ccccc5n6*)ccc43)cc2)cc1 (repeat unit)
24 | 132.00 °C | *CCCCCCCCCCC(=O)Nc1ccc(Oc2ccc(NC(=O)CCCCCCCCCCN3C(=O)c4ccc(C(=O)c5ccc6c(c5)C(=O)N(*)C6=O)cc4C3=O)cc2)cc1 (repeat unit)
25 | 265.50 °C | *C(=O)c1ccc2c(c1)C(=O)N(c1cccc(Cc3ccc(C(=O)c4cccc(N5C(=O)c6ccc(*)cc6C5=O)c4)cc3)c1)C2=O (repeat unit)
26 | 218.00 °C | *c1ccc(Sc2ccc(Sc3ccc(N4C(=O)c5ccc(Oc6ccc7c(c6)C(=O)N(*)C7=O)cc5C4=O)cc3)s2)cc1 (repeat unit)
27 | 247.00 °C | *c1ccc(Oc2ccc(Oc3ccc(N4C(=O)c5ccc(-c6ccc7c(c6)C(=O)N(*)C7=O)cc5C4=O)cc3)c(-c3ccccc3)c2)cc1 (repeat unit)
28 | 180.00 °C | *CCOC(=O)c1ccc(-c2ccc(-c3ccc(C(=O)O*)cc3)cc2)cc1 (repeat unit)
29 | 306.00 °C | *c1ccc(Oc2ccc(-c3nc4ccc(-c5ccc6nc(*)c(-c7ccccc7)nc6c5)cc4nc3-c3ccccc3)cc2)cc1 (repeat unit)
30 | 264.00 °C | *CC(=O)Nc1cccc2c(NC(=O)COc3ccc4ccccc4c3Sc3c(O*)ccc4ccccc34)cccc12 (repeat unit)
31 | 97.00 °C | *CCCCCCCCCCCN1C(=O)c2ccc(C(=O)Oc3ccc(-c4ccc(OC(=O)c5ccc6c(c5)C(=O)N(*)C6=O)cc4)cc3)cc2C1=O (repeat unit)
32 | 194.00 °C | *CC(*)(C)C(=O)OC12CC3CC(C)(CC(C)(C3)C1)C2 (repeat unit)
33 | 165.00 °C | */C=C/c1ccc2c(c1)C(CC(CC)CCCC)(CC(CC)CCCC)c1cc(*)ccc1-2 (repeat unit)
34 | 117.00 °C | *CCCCOC(=O)Nc1ccc(C)c(NC(=O)OCCCCn2c3ccccc3c3cc(/C=C(\C#N)C(=O)OCCCCCCOC(=O)/C(C#N)=C/c4ccc5c(c4)c4ccccc4n5*)ccc32)c1 (repeat unit)

Row | SMILES | glass transition temperature
35 | *CCC(C)CCC(=O)O* (repeat unit) [Poly(oxycarbonyl-3-methylpentamethylene) ] | -53 ± 0.6 °C
36 | *CCN(*)C(=O)c1cc(F)cc(F)c1 (repeat unit) | 106.00 °C
37 | *CCCCC(=O)O* (repeat unit) | -66.00 °C
38 | *OP(=O)(Oc1ccccc1)Oc1ccc(-c2ccc(*)cc2)cc1 (repeat unit) | 112.00 °C
39 | *CC(*)OC(C)=O (repeat unit) [poly(vinyl acetate)] | 40.92 ± 13 °C
40 | *NC(CCC(=O)OC)C(*)=O (repeat unit) | 0.00 °C
41 | *CC(*)c1nc(C)nc(C)n1 (repeat unit) | 70.00 °C
42 | *CCO* (repeat unit) [Poly(ethylene glycol)] | -15.6 ± 42 °C
43 | *CCN(*)C(C)=O (repeat unit) | 80.00 °C
44 | *Oc1ccc(C(=O)Nc2ccc(C(c3ccc(NC(=O)c4ccc(*)cc4)cc3)(P3(=O)Oc4ccccc4-c4ccccc43)P3(=O)Oc4ccccc4-c4ccccc43)cc2)cc1 (repeat unit) | 243.00 °C
45 | *CC(*)(CCCCC)C(=O)OC (repeat unit) | 53.00 °C
